Series [1] has as its system human embryonic stem cell derived neural stem cells (NSCs). Put plainly: Neural Stem Cell Proliferation Assay (neurogenesis assay, ATP levels by CellTiterGlo). It is filed as cell-based. Particulars: 96 h, compound concentration at which 150% activity of control (100%) is reached, NSC proliferation by ATP level after 4 days incubation, dose response 8 μM to 8 nM. The essentials: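 Read-out is CellTiterGlo ATP luminescence after 4-day culture (37 °C, 5% CO2) of dual-SMAD-derived human ESC NSCs, dosed 4 h post-seeding at 8 μM to 8 nM (11 points, 2-fold). EC150 marks the concentration reaching 150% of the media-only control (0.25% DMSO).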

As to `N#Cc1cc(-c2ccccc2)c2c(c1)cc1n2CCNC1=O` [Example 93, 1-Oxo-6-phenyl-1,2,3,4-tetrahydro-pyrazino[1,2-a]indole-8-carbonitrile], the melting point came out at 265.5 °C. This compound also gave an EC (150% of control) in series [1] of 0.035 µM.
`Cc1c2n(c3c(-c4ccc(Cl)s4)cc(F)cc13)CCNC2=O` [Example 183, 6-(5-Chloro-thiophen-2-yl)-8-fluoro-10-methyl-3,4-dihydro-2H-pyrazino[1,2-a]indol-1-one] had a melting point of 185 °C. This compound came in with an EC (150% of control) in series [1] of 0.19 µM.
The corresponding values for `COc1ccc(-c2cc(F)cc3c(C)c4n(c23)CCNC4=O)cn1` [Example 146, 8-Fluoro-6-(6-methoxy-pyridin-3-yl)-10-methyl-3,4-dihydro-2H-pyrazino[1,2-a]indol-1-one] are 226 °C and 0.02 µM.
`Cc1c2n(c3c(-c4ccco4)cc(F)cc13)CCNC2=O` [Example 188, 8-Fluoro-6-(furan-2-yl)-10-methyl-3,4-dihydro-2H-pyrazino[1,2-a]indol-1-one]: the melting point was determined as 236 °C. This compound also came in with an EC (150% of control) in series [1] of 0.1 µM.
For `N#Cc1cc(-c2cccnc2)c2c(c1)cc1n2CCNC1=O` [Example 229, 1-Oxo-6-pyridin-3-yl-3,4-dihydro-2H-pyrazino[1,2-a]indole-8-carbonitrile], the melting point amounted to 272.5 °C. Further, the EC (150% of control) in series [1] is 0.94 µM.
`O=C1NCCn2c1c(C(F)(F)F)c1cc(Cl)cc(-c3ccc(Cl)cc3)c12` [Example 187, 8-Chloro-6-(4-chlorophenyl)-10-(trifluoromethyl)-3,4-dihydro-2H-pyrazino[1,2-a]indol-1-one] gave a melting point of 214 °C. This compound had an EC (150% of control) in series [1] of 0.088 µM.
The compound `COc1cc(-c2ccc(F)cc2)c2c(c1)cc1n2CCNC1=O` [Example 210, 6-(4-Fluorophenyl)-8-methoxy-3,4-dihydro-2H-pyrazino[1,2-a]indol-1-one] yielded a melting point of 220 °C. The EC (150% of control) in series [1] turned out to be 2.29 µM.
For the compound `Cc1cc(-c2cc(F)cc3c(C)c4n(c23)CCNC4=O)ccc1F` [Example 148, 8-Fluoro-6-(4-fluoro-3-methyl-phenyl)-10-methyl-3,4-dihydro-2H-pyrazino[1,2-a]indol-1-one], the melting point turned out to be 236 °C. The EC (150% of control) in series [1] came out at 0.078 µM.
As to `Cc1c2n(c3c(-c4ccc(S(C)(=O)=O)cc4)cc(Cl)cc13)CCNC2=O` [Example 107, 8-Chloro-6-(4-methanesulfonyl-phenyl)-10-methyl-3,4-dihydro-2H-pyrazino[1,2-a]indol-1-one], the melting point is 321.5 °C. In series [1], this compound displayed an EC (150% of control) of 0.027 µM.
With `Cc1c2n(c3c(-c4ccc(C#N)cc4)cc(Cl)cc13)CCNC2=O` [Example 104, 4-(8-Chloro-10-methyl-1-oxo-1,2,3,4-tetrahydro-pyrazino[1,2-a]indol-6-yl)-benzonitrile], the melting point amounted to 290 °C. In addition, in series [1], the EC (150% of control) came to 0.015 µM.
For `Cc1c2n(c3c(-c4ccc(N(C)C)nc4)cc(Cl)cc13)CCNC2=O` [Example 154, 8-Chloro-6-(6-dimethylamino-pyridin-3-yl)-10-methyl-3,4-dihydro-2H-pyrazino[1,2-a]indol-1-one] the same measures were 248 °C and 0.022 µM.
`C[C@@H]1CNC(=O)c2cc3cc(F)cc(-c4cc(F)cc(F)c4)c3n21` [Example 9, (R)-6-(3,5-Difluoro-phenyl)-8-fluoro-4-methyl-3,4-dihydro-2H-pyrazino[1,2-a]indol-1-one] displayed a melting point of 229.5 °C. Moreover, in series [1], the EC (150% of control) turned out to be 0.37 µM.
As for `Cc1c2n(c3c(-c4ccc(F)cc4)cc(C#N)cc13)CCCNC2=O` [Example 198, 7-(4-Fluorophenyl)-11-methyl-1-oxo-2,3,4,5-tetrahydro-[1,4]diazepino[1,2-a]indole-9-carbonitrile], the melting point is 278 °C. In series [1], this compound yielded an EC (150% of control) of 0.033 µM.

Source of the values: patent US9284321B2, “Piperazino[1,2-a]indol-1-ones and [1,4]diazepino[1,2-a]indol-1-one” (Hoffmann-La Roche Inc., priority 2012, dated 2016).
